Measured values taken from patent US8609836B2, “4-aryl-2-anilino-pyrimidines” (Janssen Pharmaceutica NV, priority 2008, dated 2013).

How the values were obtained:
AuroraB (h) = AuroraB (h) (Homo sapiens, UniProt Q96GD4); experiment: Aurora-B human kinase inhibition, SPA; format: biochemical; details: read-out: AuroraB pIC50 (converted)
In short: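 AuroraB (0.5 μg/ml) phosphorylates 3 μM biotin-peptide using 0.5 μM ATP spiked with 33P-ATP in Hepes pH 7.5 with 3 mM MgCl2 and MnCl2, for 60 min at room temperature. EDTA stop solution carries streptavidin scintillant beads, and the captured radiolabel is imaged.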

CDK1/CyclinB (h) = CDK1/CyclinB (h) (Homo sapiens, UniProt P06493); experiment: CDK1/CyclinB human kinase inhibition, Invitrogen's FRET assay (Z'lyte); format: biochemical; details: read-out: CDK1 pIC50 (converted)
Sequence of CDK1/CyclinB (h) (P06493 whole entry): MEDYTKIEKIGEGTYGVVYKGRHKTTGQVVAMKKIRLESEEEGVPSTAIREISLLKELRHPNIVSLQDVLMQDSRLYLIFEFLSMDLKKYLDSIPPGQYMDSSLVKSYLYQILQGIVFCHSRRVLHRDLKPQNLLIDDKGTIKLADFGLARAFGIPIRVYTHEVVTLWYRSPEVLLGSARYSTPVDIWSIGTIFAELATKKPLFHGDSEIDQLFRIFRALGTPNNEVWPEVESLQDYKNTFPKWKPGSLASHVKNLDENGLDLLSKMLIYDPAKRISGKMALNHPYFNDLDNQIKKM
Sequence of CDK1/CyclinB (h) (P14635 whole entry partner): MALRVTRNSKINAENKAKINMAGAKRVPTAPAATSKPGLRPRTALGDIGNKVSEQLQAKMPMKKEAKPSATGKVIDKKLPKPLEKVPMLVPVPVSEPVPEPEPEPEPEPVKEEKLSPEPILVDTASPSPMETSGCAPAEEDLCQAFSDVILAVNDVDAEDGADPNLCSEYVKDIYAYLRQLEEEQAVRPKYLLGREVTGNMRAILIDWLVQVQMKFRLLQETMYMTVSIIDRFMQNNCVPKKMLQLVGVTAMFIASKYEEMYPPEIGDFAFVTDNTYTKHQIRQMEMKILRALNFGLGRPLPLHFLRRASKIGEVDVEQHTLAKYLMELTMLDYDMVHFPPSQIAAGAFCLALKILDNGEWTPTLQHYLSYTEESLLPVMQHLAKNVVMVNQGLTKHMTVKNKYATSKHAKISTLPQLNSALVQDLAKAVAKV
In short: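 Read-out is the 460 nm/538 nm emission ratio (390 nm excitation) after a 60 min protease development step. Before that, 10 μM ATP and 2 μM Z'lyte Ser/Thr peptide 12 react 60 min at room temperature with 0.2 μg/ml human CDK1/CyclinB in Hepes pH 7.5 containing MgCl2, EGTA and Brij-35.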

CDK4/CyclinD1 (h) = CDK4/CyclinD1 (h) (Homo sapiens, UniProt P11802); experiment: CDK4/CyclinD1 human kinase inhibition, SPA with GST-pRb substrate; format: biochemical; details: read-out: CDK4 pIC50 (converted)
Sequence of CDK4/CyclinD1 (h) (P11802 whole entry): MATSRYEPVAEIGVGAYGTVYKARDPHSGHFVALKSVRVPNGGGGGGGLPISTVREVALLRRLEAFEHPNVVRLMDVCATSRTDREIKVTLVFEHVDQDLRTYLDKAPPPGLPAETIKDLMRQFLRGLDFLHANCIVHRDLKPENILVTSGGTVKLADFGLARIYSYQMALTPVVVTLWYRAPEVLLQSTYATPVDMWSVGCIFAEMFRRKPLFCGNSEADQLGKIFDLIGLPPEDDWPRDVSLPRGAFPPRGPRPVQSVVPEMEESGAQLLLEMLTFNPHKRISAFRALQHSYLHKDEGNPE
Sequence of CDK4/CyclinD1 (h) (P24385 whole entry partner): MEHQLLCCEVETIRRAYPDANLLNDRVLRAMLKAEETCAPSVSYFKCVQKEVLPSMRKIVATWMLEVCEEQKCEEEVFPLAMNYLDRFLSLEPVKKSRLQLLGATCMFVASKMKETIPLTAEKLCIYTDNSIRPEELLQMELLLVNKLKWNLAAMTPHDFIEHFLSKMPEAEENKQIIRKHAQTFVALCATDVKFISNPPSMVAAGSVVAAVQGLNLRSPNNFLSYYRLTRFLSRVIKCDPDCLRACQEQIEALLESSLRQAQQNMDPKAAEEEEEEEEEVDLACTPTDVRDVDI
In short: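 Scintillation proximity format: after EDTA/Triton stop containing glutathione SPA beads, 33P incorporation was counted. The reaction ran 60 min at room temperature in Hepes pH 7.5 with NaF, MgCl2, DTT, using 2.5 μg/ml human CDK4/CyclinD1, 40 μg/ml GST-pRb substrate and 2 nM [γ-33P]ATP.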

PLK2 (h) = PLK2 (h) (Homo sapiens, UniProt Q9NYY3); experiment: PLK2 human kinase inhibition, SPA; format: biochemical; details: read-out: PLK2 pIC50 (converted)
Sequence of PLK2 (h) (Q9NYY3 whole entry): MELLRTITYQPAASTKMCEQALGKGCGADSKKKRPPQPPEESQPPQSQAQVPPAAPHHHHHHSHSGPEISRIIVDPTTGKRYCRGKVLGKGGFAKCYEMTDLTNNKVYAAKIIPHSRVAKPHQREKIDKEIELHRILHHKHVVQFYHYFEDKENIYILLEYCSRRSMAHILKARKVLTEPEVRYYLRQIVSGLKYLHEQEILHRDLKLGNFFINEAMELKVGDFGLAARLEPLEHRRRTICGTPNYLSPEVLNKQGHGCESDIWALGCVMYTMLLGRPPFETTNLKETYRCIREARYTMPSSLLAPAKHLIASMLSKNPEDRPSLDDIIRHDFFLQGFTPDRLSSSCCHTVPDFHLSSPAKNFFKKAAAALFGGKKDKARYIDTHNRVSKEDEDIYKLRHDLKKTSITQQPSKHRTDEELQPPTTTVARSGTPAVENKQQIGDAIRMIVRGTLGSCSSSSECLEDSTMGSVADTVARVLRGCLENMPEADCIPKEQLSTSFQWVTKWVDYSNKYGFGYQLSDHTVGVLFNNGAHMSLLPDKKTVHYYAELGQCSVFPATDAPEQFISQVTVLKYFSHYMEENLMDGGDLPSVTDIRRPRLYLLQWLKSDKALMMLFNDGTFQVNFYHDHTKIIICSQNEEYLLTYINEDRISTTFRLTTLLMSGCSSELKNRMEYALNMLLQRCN
In short: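 33P incorporation into a biotinylated peptide (2 μM) was captured on streptavidin PVT beads and imaged on Leadseeker. Enzyme at 30 μg/ml, ATP 0.1 μM with 2 nM [γ-33P]ATP, Hepes pH 8.0 with MnCl2 and DTT. Incubation was 20 min at room temperature.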

PLK3 (h) = PLK3 (h) (Homo sapiens, UniProt Q9H4B4); experiment: PLK3 human kinase inhibition, SPA; format: biochemical; details: read-out: PLK3 pIC50 (converted)
Sequence of PLK3 (h) (Q9H4B4 whole entry): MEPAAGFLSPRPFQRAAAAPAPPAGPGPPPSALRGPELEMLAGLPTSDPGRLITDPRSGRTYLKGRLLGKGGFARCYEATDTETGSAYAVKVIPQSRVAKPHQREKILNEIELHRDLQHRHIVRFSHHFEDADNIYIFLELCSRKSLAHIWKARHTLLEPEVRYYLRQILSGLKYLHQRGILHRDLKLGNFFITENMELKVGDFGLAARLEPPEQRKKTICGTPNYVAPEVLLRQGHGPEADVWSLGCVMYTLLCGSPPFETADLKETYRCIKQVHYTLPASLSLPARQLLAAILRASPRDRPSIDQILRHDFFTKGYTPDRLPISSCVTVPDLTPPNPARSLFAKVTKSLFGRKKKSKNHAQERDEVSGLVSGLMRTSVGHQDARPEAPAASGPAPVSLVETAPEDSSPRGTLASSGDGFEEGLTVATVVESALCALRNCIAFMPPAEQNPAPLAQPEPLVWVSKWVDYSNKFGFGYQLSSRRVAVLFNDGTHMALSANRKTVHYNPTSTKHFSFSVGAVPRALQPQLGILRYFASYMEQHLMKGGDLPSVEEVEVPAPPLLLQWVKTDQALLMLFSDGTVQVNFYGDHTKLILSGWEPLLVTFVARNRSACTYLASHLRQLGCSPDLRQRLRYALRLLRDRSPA
In short: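 Radiometric scintillation proximity format at pH 8.0 (Hepes, MnCl2, DTT). The 2 μM biotin-peptide substrate is phosphorylated by PLK3 (h) (30 μg/ml) using 0.1 μM ATP traced with 33P, for 20 min at room temperature. EDTA stop; phosphopeptide captured on streptavidin beads and imaged.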

HCT-116 = experiment: Cellular proliferation assay (Alamar blue), HCT-116; format: cell-based; details: Homo sapiens, 10% FCS, 72 hours with compound, Alamar blue 4 h
In short: (§1)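 Alamar blue fluorescence (544/590 nm) measured viable cells after 72 h compound exposure; dye incubation 4 h (HCT-116), 6 h (U87-MG) or 24 h (A2780, MDA-MB-231). Cells pre-seeded 24 h, grown in 10% FCS, 37° C, 5% CO2; effect expressed relative to control cells.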

H1299 = experiment: Cellular proliferation assay (Alamar blue), H1299; format: cell-based; details: Homo sapiens, NCI-H1299; 10% FCS; 72 hours with compound; Alamar blue 4 h
In short: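 This proliferation assay on NCI-H1299 cells used an initial 24-hour compound-free incubation after seeding, followed by 72 hours of compound treatment with 10% FCS serum at 37° C. and 5% (v/v) CO2. Viable cells were quantified by a 4 h Alamar blue incubation and fluorescent plate reading at 544 nm/590 nm, and effects were expressed relative to control cells.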

U87-MG = experiment: Cellular proliferation assay (Alamar blue), U87-MG; format: cell-based; details: Homo sapiens, U-87 MG; 10% FCS; 72 hours with compound; Alamar blue 6 h; read-out: U87-MG (cellular proliferation assay, Table 4) (converted)
In short: as §1

A2780 = experiment: Cellular proliferation assay (Alamar blue), A2780; format: cell-based; details: Homo sapiens, 10% FCS, 72 hours with compound, Alamar blue 24 h, read-out: A2780 (cellular proliferation assay, Table 4) (converted)
In short: as §1

MDA-MB-231 = experiment: Cellular proliferation assay (Alamar blue), MDA-MB-231; format: cell-based; details: Homo sapiens, 10% FCS, 72 hours with compound, Alamar blue 24 h, read-out: MDA/MB231 (cellular proliferation assay, Table 4) (converted)
In short: as §1

Sequence of AuroraB (h) (Q96GD4 whole entry): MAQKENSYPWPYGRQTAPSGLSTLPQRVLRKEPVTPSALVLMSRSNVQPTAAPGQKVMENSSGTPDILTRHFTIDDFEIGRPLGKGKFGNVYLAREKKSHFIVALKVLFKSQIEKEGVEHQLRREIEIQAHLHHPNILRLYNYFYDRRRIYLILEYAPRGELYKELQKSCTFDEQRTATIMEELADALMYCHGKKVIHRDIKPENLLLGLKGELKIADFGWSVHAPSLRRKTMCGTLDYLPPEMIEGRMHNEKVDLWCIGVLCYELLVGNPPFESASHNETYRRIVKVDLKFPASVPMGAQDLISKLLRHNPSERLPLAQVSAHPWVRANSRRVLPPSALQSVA

| SMILES | IC50 (AuroraB (h)) | IC50 (CDK1/CyclinB (h)) | IC50 (CDK4/CyclinD1 (h)) | IC50 (PLK2 (h)) | IC50 (PLK3 (h)) | IC50 (HCT-116) | IC50 (H1299) | IC50 (U87-MG) | IC50 (A2780) | IC50 (MDA-MB-231) |
| --- | --- | --- | --- | --- | --- | --- | --- | --- | --- | --- |
| O=C1NCc2cccc(c2)-c2ccnc(n2)Nc2cccc(c2)CN[C@H]1Cc1ccccc1 [Compound 185] | > 10 µM | 4.79 µM | > 10 µM | > 10 µM | > 10 µM | 6.92 µM | 2.63 µM | 6.76 µM | > 10 µM | > 10 µM |
| C[C@@H]1NCc2ccc(Cl)c(c2)Nc2nccc(n2)-c2cccc(c2)CNC1=O [Compound 186] | > 10 µM | > 10 µM | > 10 µM | > 10 µM | > 10 µM | > 10 µM | > 10 µM | > 10 µM | > 10 µM | > 10 µM |
| O=C1NCc2cccc(c2)-c2ccnc(n2)Nc2cccc(c2)CN[C@H]1CO [Compound 187] | > 10 µM | 0.646 µM | 1.2 µM | > 10 µM | > 10 µM | 1.35 µM | 6.17 µM | > 10 µM | 5.5 µM | 7.94 µM |
| O=C1NCc2cccc(c2)-c2ccnc(n2)Nc2cc(ccc2Cl)CN[C@H]1CO [Compound 188] | > 10 µM | 9.12 µM | > 10 µM | > 10 µM | > 10 µM | > 10 µM | > 10 µM | > 10 µM | > 10 µM | > 10 µM |
| O=C1NCc2cccc(c2)-c2ccnc(n2)Nc2cc(ccc2Cl)CN[C@H]1Cc1ccccc1 [Compound 189] | > 10 µM | 5.62 µM | 5.75 µM | > 10 µM | > 10 µM | > 10 µM | > 10 µM | > 10 µM | > 10 µM | > 10 µM |
| C[C@@H]1NCc2ccc(cc2)Nc2nccc(n2)-c2cccc(c2)CNC1=O [Compound 190] | > 10 µM | 6.46 µM | > 10 µM | > 10 µM | > 10 µM | > 10 µM | > 10 µM | > 10 µM | > 10 µM | > 10 µM |
| O=C1NCc2cccc(c2)-c2ccnc(n2)Nc2ccc(cc2)CN[C@H]1Cc1ccccc1 [Compound 192] | > 10 µM | > 10 µM | > 10 µM | > 10 µM | > 10 µM | > 10 µM | > 10 µM | > 10 µM | > 10 µM | > 10 µM |
| O=C1CN2CCN(CC2)Cc2ccc(cc2)Nc2nccc(n2)-c2cccc(c2)CN1 [Compound 193] | > 10 µM | > 10 µM | 4.37 µM | > 10 µM | > 10 µM | > 10 µM | > 10 µM | > 10 µM | > 10 µM | > 10 µM |
| O=C1CN2CCN(CC2)Cc2cc(ccc2N2CCOCC2)Nc2nccc(n2)-c2ccc(cc2)CN1 [Compound 194] | > 10 µM | > 10 µM | 1.7 µM | > 10 µM | > 10 µM | > 10 µM | > 10 µM | > 10 µM | > 10 µM | > 10 µM |
| O=C1CN2CCN(CC2)Cc2ccc(Cl)c(c2)Nc2nccc(n2)-c2cccc(c2)CN1 [Compound 195] | > 10 µM | > 10 µM | > 10 µM | > 10 µM | > 10 µM | > 10 µM | > 10 µM | > 10 µM | > 10 µM | > 10 µM |
| O=C1CN2CCN(CC2)Cc2cccc(c2)Nc2nccc(n2)-c2cccc(c2)CN1 [Compound 196] | > 10 µM | > 10 µM | 6.17 µM | > 10 µM | > 10 µM | > 10 µM | > 10 µM | > 10 µM | > 10 µM | > 10 µM |
